For assay [1], the system named is VAP-1 enzyme (SSAO) activity in rat plasma. Description: Inhibitory effect on rat VAP-1 enzyme (SSAO) activity in rat plasma after oral administration. The assay is classed as in vivo, Wistar male rats. Particulars: rat plasma VAP-1 activity, oral 0.3 mg/kg; for Inhibition Ratio (%) 1 h: 1 h after administration; for Inhibition Ratio (%) 3 h: 3 h after administration; for Inhibition Ratio (%) 6 h: 6 h after administration; for Inhibition Ratio (%) 24 h: 24 h after administration. As to the method: Eight-week to twelve-week Wistar male rats were fasted for 20 hours, and orally administered with a test drug ([…]). Heparin blood collection from the tail vein was performed immediately before the administration, and at 1 h, 3 h, 6 h, 12 h, or 24 h after the administration. The resulting blood was subjected to centrifugation at 14000 rpm for 5 minutes to separate plasma, and the VAP-1 enzyme activity in the resulting plasma was measured by a radio-enzyme assay method.
For the radio-enzyme assay method, ^14C-benzylamine which is a synthetic substrate (10 μM) was reacted with the resulting plasma at 37° C., and the resulting metabolite was extracted with a mixture of toluene/ethyl acetate. The radioactivity was measured and taken as a VAP-1 enzyme activity in the plasma. The effect of the test drug was calculated from the inhibitory ratio (%) of the VAP-1 activity after the administration of the test drug relative to the VAP-1 activity in the plasma immediately before the administration.

Assay [2] has as its target human VAP-1 enzyme (SSAO) (Homo sapiens (Human), UniProt Q16853). Description: Inhibitory effect on human VAP-1 enzyme (SSAO) activity, radiochemistry-enzymatic assay with 14C-benzylamine. It is filed as biochemical. The following applies: CHO-expressed human VAP-1, 14C-benzylamine 1×10^−5 mol/L. As to the method:
(§1) After homogenizing CHO (Chinese Hamster Ovary) cells stably expressing a human VAP-1 enzyme (SSAO) in a 50 mM phosphate buffer containing 1% NP-40, an enzyme suspension was obtained by taking the supernatant obtained by centrifugation. The enzyme suspension was preincubated with the compound of the present invention in a 96-well microplate at room temperature for 30 minutes. Subsequently, the enzyme suspension was incubated with ^14C-benzylamine (a final concentration of 1×10^−5 mol/L) to a final volume of […] at 37° C. for 1 hour. The enzymatic reaction was stopped by the addition of 2 mol/L (50 pt) of citric acid.

Another assay concerns the target rat VAP-1 enzyme (SSAO) (Rattus norvegicus (Rat), UniProt O08590). Description: Inhibitory effect on rat VAP-1 enzyme (SSAO) activity, radiochemistry-enzymatic assay with 14C-benzylamine. It is filed as biochemical. Particulars: CHO-expressed rat VAP-1, 14C-benzylamine 1×10^−5 mol/L. The protocol:
as §1, with “rat” for “human”, “μL)” for “pt)”, “acid. The oxidation products were extracted directly in a 200 μL toluene scintillator, and the radioactivity was measured with a scintillation spectrometer.” for “acid.”

pIC50: −log10 of the molar value.

rat VAP-1 enzyme (SSAO), sequence (O08590 whole entry): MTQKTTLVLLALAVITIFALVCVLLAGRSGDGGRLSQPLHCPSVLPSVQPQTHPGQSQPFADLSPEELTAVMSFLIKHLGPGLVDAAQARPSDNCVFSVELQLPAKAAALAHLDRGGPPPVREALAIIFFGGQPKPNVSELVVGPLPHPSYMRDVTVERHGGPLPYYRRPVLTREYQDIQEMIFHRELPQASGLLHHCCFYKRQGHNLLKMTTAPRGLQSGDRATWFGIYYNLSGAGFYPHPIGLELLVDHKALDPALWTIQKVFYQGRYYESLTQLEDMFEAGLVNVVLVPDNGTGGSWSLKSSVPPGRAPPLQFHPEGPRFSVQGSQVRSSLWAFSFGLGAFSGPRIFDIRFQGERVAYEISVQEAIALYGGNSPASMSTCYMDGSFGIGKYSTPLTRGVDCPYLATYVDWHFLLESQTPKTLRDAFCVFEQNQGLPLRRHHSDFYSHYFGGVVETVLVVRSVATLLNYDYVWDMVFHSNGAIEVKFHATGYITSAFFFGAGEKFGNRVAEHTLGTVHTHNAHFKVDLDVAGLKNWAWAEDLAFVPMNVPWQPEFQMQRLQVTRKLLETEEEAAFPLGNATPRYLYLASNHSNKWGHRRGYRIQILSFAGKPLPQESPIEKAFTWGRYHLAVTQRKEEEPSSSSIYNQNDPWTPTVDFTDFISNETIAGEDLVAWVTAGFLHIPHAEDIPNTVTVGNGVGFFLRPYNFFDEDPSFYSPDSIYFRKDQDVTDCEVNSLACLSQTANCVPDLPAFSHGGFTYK
human VAP-1 enzyme (SSAO), sequence (Q16853 whole entry): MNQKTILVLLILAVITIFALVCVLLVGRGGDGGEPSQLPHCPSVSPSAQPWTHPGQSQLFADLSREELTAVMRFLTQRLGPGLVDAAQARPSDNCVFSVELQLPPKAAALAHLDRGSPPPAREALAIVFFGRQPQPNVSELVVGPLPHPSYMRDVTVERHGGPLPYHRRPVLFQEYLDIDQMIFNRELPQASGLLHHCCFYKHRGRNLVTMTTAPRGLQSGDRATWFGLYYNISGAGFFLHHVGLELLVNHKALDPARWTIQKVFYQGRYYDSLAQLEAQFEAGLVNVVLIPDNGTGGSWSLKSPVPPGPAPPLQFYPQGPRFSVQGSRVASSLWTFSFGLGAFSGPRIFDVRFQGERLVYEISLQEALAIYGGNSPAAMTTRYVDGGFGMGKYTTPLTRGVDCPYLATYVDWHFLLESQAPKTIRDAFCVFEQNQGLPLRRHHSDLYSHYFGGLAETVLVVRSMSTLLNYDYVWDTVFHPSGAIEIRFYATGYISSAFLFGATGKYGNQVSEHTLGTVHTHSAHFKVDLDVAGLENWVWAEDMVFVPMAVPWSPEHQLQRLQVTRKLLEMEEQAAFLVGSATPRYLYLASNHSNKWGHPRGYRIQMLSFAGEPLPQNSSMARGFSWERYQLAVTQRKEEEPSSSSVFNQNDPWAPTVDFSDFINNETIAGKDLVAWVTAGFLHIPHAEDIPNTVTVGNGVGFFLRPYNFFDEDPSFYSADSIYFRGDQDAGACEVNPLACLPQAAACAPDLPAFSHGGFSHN

Consider `CCC(=O)N1CCC(C2CN(c3cccc(COC(=O)NC(=N)N)c3F)C2)CC1` [Example 560], for which, in assay [1], the “Inhibition Ratio (%) 1 h” value is reported as 89%, the “Inhibition Ratio (%) 3 h” value amounted to 91%, the “Inhibition Ratio (%) 6 h” value turned out to be 84% and the “Inhibition Ratio (%) 24 h” value came to 58%. Besides, the pIC50 in assay [2] is 8.05. Besides, the pIC50 against rat VAP-1 enzyme (SSAO) was 8.85.

On to `COCc1ccc(N2CCN(c3cccc(COC(=O)NC(=N)N)c3F)CC2)cn1` [Example 554], for which, in assay [1], the “Inhibition Ratio (%) 1 h” value came to 99%, the “Inhibition Ratio (%) 3 h” value was determined as 100%, the “Inhibition Ratio (%) 6 h” value is recorded as 87% and the “Inhibition Ratio (%) 24 h” value is recorded as 72%. In assay [2], the pIC50 was 7.68. On rat VAP-1 enzyme (SSAO), this molecule had a pIC50 of 9.01.

`COCC(=O)N1CCC(C2CN(c3cccc(COC(=O)NC(=N)N)c3F)C2)CC1` [Example 562]: in assay [1], the “Inhibition Ratio (%) 1 h” value came to 79%, the “Inhibition Ratio (%) 3 h” value is recorded as 81%, the “Inhibition Ratio (%) 6 h” value worked out at 78% and the “Inhibition Ratio (%) 24 h” value came out at 37%. The molecule further showed a pIC50 in assay [2] of 7.85. This molecule also showed a pIC50 on rat VAP-1 enzyme (SSAO) of 8.85.

With `CC(=O)Nc1nc(CCc2cccc(CNC(=O)NC(=N)N)c2)cs1.Cl` [Example 83], in assay [1], the “Inhibition Ratio (%) 1 h” value came out at 34%, the “Inhibition Ratio (%) 3 h” value was determined as 66% and the “Inhibition Ratio (%) 6 h” value stood at 86%. Moreover, in assay [1] (12 h after administration), the “Inhibition Ratio (%) 12 h” value came out at 53%. Further, the pIC50 in assay [2] is 7.60. On rat VAP-1 enzyme (SSAO), the pIC50 was 8.72.

`N=C(N)NC(=O)OCc1cccc(N2CCN(c3cccnc3)C(=O)C2)c1F` [Example 304]: in assay [1], the “Inhibition Ratio (%) 1 h” value was 52%, the “Inhibition Ratio (%) 3 h” value was 56%, the “Inhibition Ratio (%) 6 h” value was found to be 56% and the “Inhibition Ratio (%) 24 h” value is given as 18%. For the same molecule, the pIC50 in assay [2] was 7.47. The molecule further gave a pIC50 at rat VAP-1 enzyme (SSAO) of 8.18.

In the case of `N=C(N)NC(=O)OCc1cccc(-c2cnc(OCC3CCN(C(=O)c4cccnc4)CC3)nc2)c1F` [Example 29], in assay [1], the “Inhibition Ratio (%) 1 h” value is 46%, the “Inhibition Ratio (%) 3 h” value stood at 60%, the “Inhibition Ratio (%) 6 h” value turned out to be 58% and the “Inhibition Ratio (%) 24 h” value is reported as 22%. Also, the pIC50 in assay [2] is 8.14. In addition, at rat VAP-1 enzyme (SSAO), the pIC50 is 8.72.

Take `COCc1cc(N2CCN(c3cccc(COC(=O)NC(=N)N)c3F)CC2)ccn1` [Example 566]: in assay [1], the “Inhibition Ratio (%) 1 h” value came to 75%, the “Inhibition Ratio (%) 3 h” value was determined as 74%, the “Inhibition Ratio (%) 6 h” value is reported as 70% and the “Inhibition Ratio (%) 24 h” value was determined as 38%. The molecule further gave a pIC50 in assay [2] of 8.20. The pIC50 at rat VAP-1 enzyme (SSAO) is 8.92.

For the molecule `COc1ncc(N2CCN(c3cccc(COC(=O)NC(=N)N)c3F)CC2)cn1` [Example 126], in assay [1], the “Inhibition Ratio (%) 1 h” value came out at 98%, the “Inhibition Ratio (%) 3 h” value is 97%, the “Inhibition Ratio (%) 6 h” value is given as 97% and the “Inhibition Ratio (%) 24 h” value is on record as 69%. Moreover, the pIC50 in assay [2] was 7.82. The pIC50 against rat VAP-1 enzyme (SSAO) was 9.28.

Regarding `CC(=O)N1CCC(COc2ncc(-c3cccc(CNC(=O)NC(=N)N)c3F)cn2)CC1` [Example 105], in assay [1], the “Inhibition Ratio (%) 1 h” value is 22%, the “Inhibition Ratio (%) 3 h” value was 38%, the “Inhibition Ratio (%) 6 h” value is on record as 31% and the “Inhibition Ratio (%) 24 h” value was found to be 6%. Besides, in assay [2], the pIC50 is 7.85. At rat VAP-1 enzyme (SSAO), this molecule gave a pIC50 of 8.59.

For `COCc1cncc(N2CCN(c3cccc(COC(=O)NC(=N)N)c3F)CC2)c1` [Example 558], in assay [1], the “Inhibition Ratio (%) 1 h” value is recorded as 84%, the “Inhibition Ratio (%) 3 h” value was 87%, the “Inhibition Ratio (%) 6 h” value amounted to 81% and the “Inhibition Ratio (%) 24 h” value is given as 62%. This molecule had a pIC50 in assay [2] of 7.64. The negative logarithm of the IC50 (pIC50) on rat VAP-1 enzyme (SSAO) was 8.92.

The values above are taken from US9556160B2, “Guanidine compound” (Astellas Pharma Inc., priority 2011, dated 2017).
